This is an account of results in patent US20260207504A1, “STABILIZATION OF LIPID NANOPARTICLE FORMULATIONS” (Eli Lilly and Company, priority 2022, published 2026).

The data set is described as follows: Lipid chemical stability in PBS or histidine buffer solution (LC-MS). The data set is classed as physicochemical. The note with it: for primary degradation pathway: LC-MS; for stability in BT5933 glass vials relative to COP vials: diluted with PBS buffer. The protocol:
Stock MC3 lipidic solutions were prepared by dissolving MC3 in an ethanolic solution to a final concentration of 4 mg/mL (e.g., 6 mM). Similarly, stock lipidic DOTAP solutions were prepared by dissolving DOTAP in an ethanolic solution to a final concentration of 4 mg/mL. Stock solutions of phosphate buffered saline (1×, pH 7.4) were used. Final lipidic solutions were prepared by mixing PBS stock to the lipidic stock in a ratio of 3:1 (e.g., PBS stock:DOTAP stock in ethanol=3:1; PBS stock:MC3 stock in ethanol=3:1). Solutions were stored in either glass (BT5933) or polymer (COP) vials.
Dilute lipidic solutions were frozen at −70° C. before being thawed and stored at either 5° C., 25° C., or 40° C. for either 1 week, 2 weeks, or 4 weeks. At each timepoint, (e.g., after 1 week, 2 weeks, or 4 weeks) the lipid solution was analyzed via LC-MS to determine the extent of hydrolysis and/or oxidation present.
MC3 and DOTAP lipids were prepared using either PBS or Histidine buffers. Ethanolic stock solutions of MC3 and DOTAP were prepared as described in Example 1. PBS-based solutions were prepared by diluting the stock lipid solutions, respectively, by 3:1 (PBS:lipid in ethanol (vol/vol)) using 1× PBS, pH 7.4. Histidine-based solutions were also prepared by diluting the stock lipidic solution by 3:1 (histidine:lipid in ethanol vol/vol) using a histidine buffer (10 mM, pH 6.0). Solutions were filled into BT5933, COP, or Valor glass vials at 1 mL aliquots and put on stability. Initial control samples were immediately frozen at −70° C.
Filled vials were stored at either 5° C., 25° C., or 40° C. for either 1 week, 2 weeks, or 4 weeks. At each timepoint, (e.g., after 1 week, 2 weeks, or 4 weeks) the lipid solution was analyzed via LC-MS to determine the extent of hydrolysis and/or oxidation present.

Where [1] appears, read: diluted in 1X PBS pH 7.4, 5, 25, 40° C., 1, 2, 4 weeks.
[2] abbreviates: histidine buffer (10 mM, pH 6.0) vs PBS, 5, 25, 40° C., 1-4 weeks.

Consider `CCCCC/C=C\C/C=C\CCCCCCCCC(CCCCCCCC/C=C\C/C=C\CCCCC)OC(=O)CCCN(C)C` [MC3, 4-(dimethylamino)-butanoic acid, (10Z,13Z)-1-(9Z,12Z)-9,12-octadecadien-1-yl-10,13-nonadecadien-1-yl ester], for which the “stability in BT5933 glass vials relative to COP vials” value is recorded as “improved stability relative to COP vials”. Under setting [1], the “% lipid intact” value is given as “lower than the % DOTAP for the same time points”. Moreover, the primary degradation pathway result (diluted in 1X PBS pH 7.4) was “oxidation”. Moreover, under setting [2], the “% hydrolysis” value is “significantly reduced lipid hydrolysis of MC3”, the “% lipid intact” value is given as “increasing the % MC3 intact at all storage conditions tested” and the degree of oxidation entry is “reduced the degree of oxidation”. Besides, the oxidation rate entry (storage in Valor glass vials vs other vials) is given as “lower oxidation rate”.
On to `CCCCCCCC/C=C\CCCCCCCC(=O)OCC(C[N+](C)(C)C)OC(=O)CCCCCCC/C=C\CCCCCCCC` (stereo not drawn) [DOTAP, 1,2-dioleoyl-3-trimethylammonium-propane], for which the “stability in BT5933 glass vials relative to COP vials” value is “better stability”. Further, under setting [1], the “% lipid intact” value was “decreased with increasing storage time”. For the same compound, the primary degradation pathway result (diluted in 1X PBS pH 7.4) was “hydrolysis”. Under setting [2], the “% hydrolysis” value is “decreased the % hydrolysis of DOTAP relative to storage in PBS” and the “% lipid intact” value is “stabilized the % DOTAP intact at all storage conditions tested”.
